Measurements reported in patent US9051325B2, “Bicyclic [5,6] imidazo pyrimodone compounds for use in the treatment of diseases or conditions mediated by Lp-PLA2” (GlaxoSmithKline Intellectual Property Development Limited, priority 2013, dated 2015).

Target: T1, Lp-PLA2 in human plasma (Homo sapiens, UniProt Q13093)
T1 construct: from tissue; host or cells: pooled human plasma
T1 sequence (Q13093 22-441): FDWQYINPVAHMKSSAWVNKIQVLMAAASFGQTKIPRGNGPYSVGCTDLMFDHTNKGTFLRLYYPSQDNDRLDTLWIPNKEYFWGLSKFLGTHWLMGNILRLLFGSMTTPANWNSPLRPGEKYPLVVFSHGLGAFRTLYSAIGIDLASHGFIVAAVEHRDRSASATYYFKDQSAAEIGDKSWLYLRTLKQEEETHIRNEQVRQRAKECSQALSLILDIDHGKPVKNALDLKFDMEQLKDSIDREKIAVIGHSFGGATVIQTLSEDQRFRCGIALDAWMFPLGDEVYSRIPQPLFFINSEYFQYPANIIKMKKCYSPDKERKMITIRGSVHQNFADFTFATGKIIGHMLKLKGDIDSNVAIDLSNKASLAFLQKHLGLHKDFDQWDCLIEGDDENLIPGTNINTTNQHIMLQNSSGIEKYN
Assay: Lp-PLA2 human plasma assay (Thio-PAF assay)
Format: biochemical
Settings: pooled human plasma; lower bounds; read-out: pIC50 values in the thio-PAF assay (converted)
Description: (3) Lipoprotein-Associated Phospholipase A2 (Lp-PLA2) Human Plasma Assay (Also Referred to as “Thio-PAF assay”)
The human plasma assay utilizes a thioester analog of PAF (phosphatidylcholine), where hydrolysis yields to the formation of a phospholipid containing a free thiol group. The amount of thiol is quantitated continuously by reacting with CPM (7-diethylamino-3-(4′-maleimidylphenyl)-4-methylcoumarin), a maleimide which increases in fluoresence after Michael addition of thiols. This assay may detect the activity of Lp-PLA2 in human plasma, as determined by specific inhibition by Lp-PLA2 inhibitors.
The thio-PAF assay was run as a quenched 15 μL assay. Compounds source plate was prepared by making 1:3 (by volume) serial dilution of the compounds into pure DMSO on 384-well microplate. 0.01 μL of compounds on compound source plate were transferred to 384 well Greiner 784076 (black) low-volume plates by ECHO liquid dispenser. 8 μL pooled human plasma, which was previously aliquoted and frozen, was added. Plates were centrifuged for 10 sec at 500 rpm. After 30 minutes preincubation, 2 μL of substrate solution comprising 2.5 mM 2-thio-PAF [from ethanol stock], 32 μM CPM [from a DMSO stock] and 3.2 mM NEM (N-ethylmaleimide) [made fresh daily in DMSO] in assay buffer of 50 mM HEPES, pH 7.4, 150 mM NaCl, 1 mM CHAPS was added to 384 well Greiner 784076 (black) low-volume plates by BRAVO liquid handling station. After 2 mins, reaction was quenched with 5 μL of 5% aqueous trifluoroacetic acid (TFA). Plates were covered to protect from light and incubated for 40 min at room temperature. Plates were read at ex: 380/em: 485 using-Envision microplate reader. PIC50 data, curve and QC analysis were conducted by using XLFit module in Excel.

IC50	SMILES
≤ 100 nM	C[C@@H]1Cn2c(cc(OCc3cccc(C#N)c3)nc2=O)N1C [Example E33, (R)-3-(((1,2-dimethyl-5-oxo-1,2,3,5-tetrahydroimidazo[1,2-c]pyrimidin-7-yl)oxy)methyl)benzonitrile]
≤ 100 nM	CN1c2cc(OCCC3CCCC3)nc(=O)n2CC1(C)C [Example E52, 7-(2-cyclopentylethoxy)-1,2,2-trimethyl-2,3-dihydroimidazo[1,2-c]pyrimidin-5(1H)-one]
≤ 100 nM	C[C@H]1Cn2c(cc(OCc3cccc(C#N)c3)nc2=O)N1C [Example E72, (S)-3-(((1,2-dimethyl-5-oxo-1,2,3,5-tetrahydroimidazo[1,2-c]pyrimidin-7-yl)oxy)methyl)benzonitrile]
≤ 100 nM	C[C@H]1Cn2c(cc(OCc3cc(F)cc(F)c3)nc2=O)N1 [Example E85, (S)-7-((3,5-difluorobenzyl)oxy)-2-methyl-2,3-dihydroimidazo[1,2-c]pyrimidin-5(1H)-one]
≤ 100 nM	C[C@H]1Cn2c(cc(OCc3cccc(C#N)c3)nc2=O)N1 [Example E109, (S)-3-(((2-methyl-5-oxo-1,2,3,5-tetrahydroimidazo[1,2-c]pyrimidin-7-yl)oxy)methyl)benzonitrile]

Target: T2, recombinant human Lp-PLA2 (Homo sapiens, UniProt Q13093)
T2 sequence (Q13093 22-441): T1 sequence (Q13093 22-441)
Assay: Recombinant human Lp-PLA2 assay (rhLp-PLA2, PED6 assay)
Format: biochemical
Settings: lower bounds; read-out: pIC50 values in the PED6 assay (converted)
Description: (1) Recombinant Human Lp-PLA2 Assay (rhLp-PLA2) (Also Referred to as “PED6” Assay)
N-((6-(2,4-dinitrophenyl)amino)-hexanoyl)-2-(4,4-difluoro-5,7-dimethyl-4-bora-3a,4a-diaza-s-indacene-3-pentanoyl)-1-hexadecanoyl-sn-glycero-3-phosphoethanolamine, triethylammonium salt (PED6) is a commercially available fluorescently-labeled phospholipid, which is commercially available from Invitrogene and Molecular Probes. There is a quenching […] and a Bodipy fluorescein (FL) group in the sn2 position. Upon cleavage with Lp-PLA2, the Bodipy FL group is liberated and then may result in an increase in fluorescence. Inhibitors of Lp-PLA2 therefore prevent this cleavage and no fluorescent increase is observed.
The PED6 assay was run as an unquenched 10 μL assay. The source plate containing the compounds to be tested was prepared by making 1:3 (by volume) serial dilution of the compounds within DMSO on 384-well microplate. Then, 0.01 μL of the compounds on compound source plate were transferred into 384 well Greiner 784076 (black) plates using ECHO liquid dispenser. 5 μL of recombinant human Lp-PLA2 enzyme (4 nM (or […]) rhLp-PLA2 in assay buffer of 50 mM HEPES, pH 7.4, 150 mM NaCl, 1 mM CHAPS) was added to each well of the plate. Plates were centrifuged for 10 sec at 500 rpm. After 30 minutes preincubation, 5 μL of substrate ([…] PED6 [from 5 mM DMSO stock] in assay buffer of 50 mM HEPES, pH 7.4, 150 mM NaCl, 1 mM CHAPS) was added to 384 well Greiner 784076 (black) plates. Plates were centrifuged for 10 sec at 500 rpm. The plate was covered to protect it from light and incubated for 20 min at room temperature. The plates were read for fluorescence intensity at ex: 480/em: 540 using ViewLux microplate imager for Envision spectrofluoroimeters pIC50 data, curve and QC analysis was conducted by using XL fit module in Excel.

SMILES	IC50
C[C@H]1Cn2c(cc(OCc3ccc(Oc4ccc(C(F)(F)F)nc4)c(F)c3)nc2=O)N1C [Example E6, (S)-7-((3-fluoro-4-((6-(trifluoromethyl)pyridin-3-yl)oxy)benzyl)oxy)-1,2-dimethyl-2,3-dihydroimidazo[1,2-c]pyrimidin-5(1H)-one]	≤ 1 nM
C[C@H]1Cn2c(cc(OCc3ccc(F)c(F)c3)nc2=O)N1 [Example E9, (S)-7-((3,4-difluorobenzyl)oxy)-2-methyl-2,3-dihydroimidazo[1,2-c]pyrimidin-5(1H)-one]	≤ 10 nM
O=c1nc(OCc2ccc(Oc3ccc(Cl)c(C(F)(F)F)c3)cc2)cc2n1CCN2C1CC1 [Example E17, 7-((4-(4-chloro-3-(trifluoromethyl)phenoxy)benzyl)oxy)-1-cyclopropyl-2,3-dihydroimidazo[1,2-c]pyrimidin-5(1H)-one]	≤ 10 nM
CN1c2cc(OCc3cccc(Cl)c3)nc(=O)n2CC1(C)C [Example E21, 7-((3-chlorobenzyl)oxy)-1,2,2-trimethyl-2,3-dihydroimidazo[1,2-c]pyrimidin-5(1H)-one]	≤ 10 nM
[2H]C([2H])(Oc1cc2n(c(=O)n1)C[C@H](C)N2C)c1ccc(F)c(F)c1 [Example E22, (S)-7-(dideutero(3,4-difluorophenyl)methoxy)-1,2-dimethyl-2,3-dihydroimidazo[1,2-c]pyrimidin-5(1H)-one]	≤ 10 nM
C[C@H]1Cn2c(cc(OCc3ccc(Oc4cncc(C#N)c4)c(F)c3)nc2=O)N1C [Example E24, (S)-5-(4-(((1,2-dimethyl-5-oxo-1,2,3,5-tetrahydroimidazo[1,2-c]pyrimidin-7-yl)ox-y)methyl)-2-fluorophenoxy)nicotinonitrile]	≤ 10 nM
C[C@H]1Cn2c(cc(OCc3ccc(Oc4cccc(F)c4)c(F)c3)nc2=O)N1C [Example E27, (S)-7-((3-fluoro-4-(3-fluorophenoxy)benzyl)oxy)-1,2-dimethyl-2,3-dihydroimidazo-[1,2-c]pyrimidin-5(1H)-one]	≤ 10 nM
C[C@H]1Cn2c(cc(OCc3ccc(Oc4cccc(F)c4)c(F)c3)nc2=O)N1 [Example E28, (S)-7-((3-fluoro-4-(3-fluorophenoxy)benzyl)oxy)-2-methyl-2,3-dihydroimidazo[1,2-c]pyrimidin-5(1H)-one]	≤ 10 nM
CN1c2cc(OCc3ccc(Cl)c(F)c3)nc(=O)n2CC1(C)C [Example E36, 7-((4-chloro-3-fluorobenzyl)oxy)-1,2,2-trimethyl-2,3-dihydroimidazo[1,2-c]pyrimidin-5(1H)-one]	≤ 10 nM

Next, values leading:

IC50	SMILES
≤ 1 nM	C[C@H]1Cn2c(cc(OCc3ccc(Oc4ccc(F)cc4)c(C#N)c3)nc2=O)N1C [Example E57, (S)-5-(((1,2-dimethyl-5-oxo-1,2,3,5-tetrahydroimidazo[1,2-c]pyrimidin-7-yl)oxy)methyl)-2-(4-fluorophenoxy)benzonitrile]
≤ 1 nM	C[C@H]1Cn2c(cc(OCc3ccc(Oc4ccc(C(F)(F)F)nc4)c(F)c3)nc2=O)N1 [Example E62, (S)-7-((3-fluoro-4-((6-(trifluoromethyl)pyridin-3-yl)oxy)benzyl)oxy)-2-methyl-2,3-dihydroimidazo[1,2-c]pyrimidin-5(1H)-one]
≤ 1 nM	C[C@H]1Cn2c(cc(OCc3cc(F)c(Oc4cccc(F)c4)c(F)c3)nc2=O)N1C [Example E76, (S)-7-((3,5-difluoro-4-(3-fluorophenoxy)benzyl)oxy)-1,2-dimethyl-2,3-dihydroimidazo[1,2-c]pyrimidin-5(1H)-one]
≤ 10 nM	[2H]C([2H])(Oc1cc2n(c(=O)n1)C[C@H](C)N2C)c1cc(F)c(F)c(F)c1 [Example E86, (S)-7-(dideutero(3,4,5-trifluorophenyl)methoxy)-1,2-dimethyl-2,3-dihydroimidazo[1,2-c]pyrimidin-5(1H)-one]
≤ 10 nM	CN1c2cc(OCc3cc(F)ccc3F)nc(=O)n2CC1(C)C [Example E92, 7-((2,5-difluorobenzyl)oxy)-1,2,2-trimethyl-2,3-dihydroimidazo[1,2-c]pyrimidin-5(1H)-one]
≤ 10 nM	C[C@H]1Cn2c(cc(OCc3ccc(Oc4ccc(F)cc4)c(F)c3)nc2=O)N1C [Example E94, (S)-7-((3-fluoro-4-(4-fluorophenoxy)benzyl)oxy)-1,2-dimethyl-2,3-dihydroimidazo[1,2-c]pyrimidin-5(1H)-one]
≤ 10 nM	N#Cc1cc(COc2cc3n(c(=O)n2)CCN3C2CC2)ccc1Oc1ccc(F)c(F)c1 [Example E118, 5-(((1-cyclopropyl-5-oxo-1,2,3,5-tetrahydroimidazo[1,2-c]pyrimidin-7-yl)oxy)methyl)-2-(3,4-difluorophenoxy)benzonitrile]
≤ 10 nM	CN1c2cc(OCc3cc(F)cc(Cl)c3)nc(=O)n2CC1(C)C [Example E125, 7-((3-chloro-5-fluorobenzyl)oxy)-1,2,2-trimethyl-2,3-dihydroimidazo[1,2-c]pyrimidin-5(1H)-one]
≤ 1 nM	C[C@H]1Cn2c(cc(OCc3cc(F)c(Oc4ccc(F)c(F)c4)c(F)c3)nc2=O)N1C [Example E126, (S)-7-((4-(3,4-difluorophenoxy)-3,5-difluorobenzyl)oxy)-1,2-dimethyl-2,3-dihydroimidazo[1,2-c]pyrimidin-5(1H)-one]
≤ 10 nM	C[C@H]1Cn2c(cc(OCc3ccc(Oc4ccc(F)cc4)c(F)c3)nc2=O)N1 [Example E130, (S)-7-((3-fluoro-4-(4-fluorophenoxy)benzyl)oxy)-2-methyl-2,3-dihydroimidazo[1,2c]pyrimidin-5(1H)-one]
